In brackets after ≈: the same amount, converted by molar mass. Several values for one entry are separate records, joined by “and”; a condition that tells them apart may be missing. Identical values can stand only once. Like-named read-outs stand apart in the source and are kept apart here.
Key:
[1] = Solubility in phosphate buffered saline; assay type: physicochemical; conditions: 10 mM phosphate buffered saline (0.138 M NaCl, 2.7 mM KCl), pH 7.4
Description: To a sample of the material of known mass were added known volumes of phosphate buffered saline until complete dissolution is observed. Suspensions were centrifuged for 5 min at 10000 rpm. […] Upon complete dissolution, the solution is diluted until the final concentration is 0.5 mg/mL to ensure that the material remains soluble over the entire range of concentrations.

S. aureus ATCC 13709 = test: In vitro antibacterial susceptibility (MIC, broth microdilution); assay type: cell-based; conditions: for MIC against S. aureus ATCC 13709, CAMHB: cation-adjusted Mueller-Hinton broth, 37° C., 18 h; for Antibacterial activity compared with oritavancin 5: deduced from the MIC data of Table 2; for MIC: Staphylococcus aureus
Description: Susceptibility of S. aureus strain ATCC13709 to oritavancin (5) and synthesized compounds was determined following the guidelines set by the Clinical and Laboratory Standards Institute (formerly the National Committee for Clinical Laboratory Standards) (M26-A). Compounds were serially diluted two-fold in either DMSO (Oritavancin 5) or in PBS and transferred to cation-adjusted Mueller Hinton broth (CAMHB; Becton Dickinson). 50 μL of compounds diluted in CAMHB was mixed with 100 μL of bacteria diluted in CAMHB in 96-well microtiter plates. The final number of micro-organisms in the assay was 5×10^5 c.f.u. per mL and the final concentration of DMSO in the assay, if present, was 1.25%. All solutions may contain 0.002% Tween as indicated. Assays were set up in duplicate and incubated at 37° C. for 18 h. The concentration of compound that inhibited visible growth was reported as the minimum inhibitory concentration (MIC).

[2] = tested on: S. aureus strain ATCC13709; test: Neutropenic mouse thigh infection model; assay type: in vivo, mice; conditions: for In vivo antibacterial efficacy compared with oritavancin: deduced from the data of Table 3; for Recovered bacterial titers per thigh, 1 mg/kg / Recovered bacterial titers per thigh, 10 mg/kg / Recovered bacterial titers per thigh, 40 mg/kg: neutropenic mice, 24 h postinfection; for Recovered bacterial titers per thigh, 1 mg/kg: 1 mg/kg one hour after inoculation; for Recovered bacterial titers per thigh, 10 mg/kg: 10 mg/kg one hour after inoculation; for Recovered bacterial titers per thigh, 40 mg/kg: 40 mg/kg one hour after inoculation
Description: The susceptibility of S. aureus strain ATCC13709 to oritavancin (5) and selected synthesized compounds in vivo was evaluated with the well accepted neutropenic mouse thigh infection model (Craig, W. A. et al. Journal of Antimicrobial Chemotherapy (1991), 27 (Suppl. C):29-40). Mice were made neutropenic by treatment with cyclophosphamide (150 and 100 mg/kg of body weight administered intraperitoneally 4 days and 1 day prior to infection). Mice were anesthetized briefly with approximately 4% isoflurane just prior to inoculation. The bacterial suspension (0.1 mL) was injected intramuscularly into each thigh (approximately 10^5 colony forming units (CFU)/thigh). The selected agents were administered in 10% (w/w) β-hydroxypropylcyclodextrin in water at a concentration of 10 mg/mL one hour following bacterial inoculation. The animals were humanely sacrificed by CO2 asphyxiation 24 h postinfection. The entire thigh muscle mass including the bone was homogenized and diluted in 0.9% saline and aliquots were plated on Brain-Heart Infusion agar. Following overnight incubation at 37° C., bacteria were enumerated for each thigh and expressed as log10 CFU per thigh. This was performed over three independent experiments and oritavancin (5) was used as a comparator in each.

CNC(CC(C)C)C(=O)NC1C(=O)NC(CC(N)=O)C(=O)NC2C(=O)NC3C(=O)NC(C(=O)NC(C(=O)SCC(=O)NCCCN)c4cc(O)cc(O)c4-c4cc3ccc4O)C(OC3CC(C)(N)C(O)C(C)O3)c3ccc(c(Cl)c3)Oc3cc2cc(c3OC2OC(CO)C(O)C(O)C2OC2CC(C)(NCc3ccc(-c4ccc(Cl)cc4)cc3)C(O)C(C)O2)Oc2ccc(cc2Cl)C1O (stereo not shown) [Compound 93]
Solubility (mg/mL) PBS [1]: ≧100 mg/mL
MIC against S. aureus ATCC 13709, CAMHB + 0.002% tween (S. aureus ATCC 13709): 0.125 µg/mL
MIC against S. aureus ATCC 13709, CAMHB + 50% human serum (S. aureus ATCC 13709): 0.25 µg/mL
MIC against S. aureus ATCC 13709, CAMHB + 50% mouse serum (S. aureus ATCC 13709): 1 µg/mL
MIC against S. aureus ATCC 13709, CAMHB (S. aureus ATCC 13709): 0.5 µg/mL (≈ 0.26 µM)
Antibacterial activity compared with oritavancin 5 (S. aureus ATCC 13709): within an order of magnitude of that of oritavancin 5
In vivo antibacterial efficacy compared with oritavancin [2]: within the same order of magnitude than oritavancin itself
Recovered bacterial titers per thigh, 1 mg/kg [2]: 8.53 ± 0.49 Log10 CFU/thigh
Recovered bacterial titers per thigh, 10 mg/kg [2]: 4.45 ± 1.68 Log10 CFU/thigh
Recovered bacterial titers per thigh, 40 mg/kg [2]: 4.18 ± 1.70 Log10 CFU/thigh

CNC(CC(C)C)C(=O)NC1C(=O)NC(CC(N)=O)C(=O)NC2C(=O)NC3C(=O)NC(C(=O)NC(C(=O)OCC[N+](C)(C)C)c4cc(O)cc(O)c4-c4cc3ccc4O)C(OC3CC(C)(N)C(O)C(C)O3)c3ccc(c(Cl)c3)Oc3cc2cc(c3OC2OC(CO)C(O)C(O)C2OC2CC(C)(NCc3ccc(-c4ccc(Cl)cc4)cc3)C(O)C(C)O2)Oc2ccc(cc2Cl)C1O (stereo not shown) [Compound 95]
Solubility (mg/mL) PBS [1]: ≧100 mg/mL
MIC against S. aureus ATCC 13709, CAMHB + 0.002% tween (S. aureus ATCC 13709): 0.25 µg/mL
MIC against S. aureus ATCC 13709, CAMHB + 50% human serum (S. aureus ATCC 13709): 0.5 µg/mL
MIC against S. aureus ATCC 13709, CAMHB + 50% mouse serum (S. aureus ATCC 13709): 2 µg/mL
MIC against S. aureus ATCC 13709, CAMHB + 50% rat serum (S. aureus ATCC 13709; CAMHB + 50% rat serum): 0.125 µg/mL
MIC against S. aureus ATCC 13709, CAMHB (S. aureus ATCC 13709): 1 µg/mL
Antibacterial activity compared with oritavancin 5 (S. aureus ATCC 13709): within an order of magnitude of that of oritavancin 5
In vivo antibacterial efficacy compared with oritavancin [2]: within the same order of magnitude than oritavancin itself
Recovered bacterial titers per thigh, 1 mg/kg [2]: 8.32 ± 0.17 Log10 CFU/thigh
Recovered bacterial titers per thigh, 10 mg/kg [2]: 3.95 ± 1.57 Log10 CFU/thigh
Recovered bacterial titers per thigh, 40 mg/kg [2]: 2.96 ± 0.96 Log10 CFU/thigh

CN[C@H](CC(C)C)C(=O)N[C@H]1C(=O)N[C@@H](CC(N)=O)C(=O)N[C@H]2C(=O)N[C@H]3C(=O)N[C@H](C(=O)N[C@H](C(=O)O)c4cc(O)cc(O)c4-c4cc3ccc4O)[C@H](O[C@H]3C[C@](C)(N)[C@@H](O)[C@H](C)O3)c3ccc(c(Cl)c3)Oc3cc2cc(c3O[C@@H]2O[C@H](CO)[C@@H](O)[C@H](O)[C@H]2O[C@H]2C[C@](C)(NCc3ccc(-c4ccc(Cl)cc4)cc3)[C@@H](O)[C@H](C)O2)Oc2ccc(cc2Cl)[C@H]1O [Oritavancin (5), oritavancin, reference compound]
Solubility (mg/mL) PBS [1]: <0.1 mg/mL
solubility ([1]; aqueous buffer, thermodynamic from solid, read-out: Solubility (mg/mL) PBS): < 0.1 mg/mL
MIC (S. aureus ATCC 13709; ATCC13709, 18 h, read-out: MIC against S. aureus ATCC 13709, CAMHB): 1 µg/mL (≈ 0.558 µM)
MIC (S. aureus ATCC 13709; ATCC13709, read-out: MIC against S. aureus ATCC 13709, CAMHB + 0.002% tween): 0.125 µg/mL
MIC (S. aureus ATCC 13709; ATCC13709, read-out: MIC against S. aureus ATCC 13709, CAMHB + 50% human serum): 0.125 µg/mL
MIC (S. aureus ATCC 13709; ATCC13709, read-out: MIC against S. aureus ATCC 13709, CAMHB + 50% mouse serum): 0.25 µg/mL
MIC (S. aureus ATCC 13709; ATCC13709, read-out: MIC against S. aureus ATCC 13709, CAMHB + 50% rat serum): 0.25 µg/mL
Recovered bacterial titers per thigh, 1 mg/kg ([2]; 1 mg/kg): 8.16 ± 0.38 Log10 CFU/thigh and 7.96 ± 0.93 Log10 CFU/thigh and 7.98 ± 0.11 Log10 CFU/thigh
Recovered bacterial titers per thigh, 10 mg/kg ([2]; 10 mg/kg): 5.19 ± 1.86 Log10 CFU/thigh and 3.81 ± 1.16 Log10 CFU/thigh and 3.03 ± 0.53 Log10 CFU/thigh
Recovered bacterial titers per thigh, 40 mg/kg ([2]; 40 mg/kg): 2.62 ± 0.18 Log10 CFU/thigh and 2.62 ± 0.51 Log10 CFU/thigh and 2.29 ± 0.70 Log10 CFU/thigh
